PubChem BioAssay (NCI)
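Values below derive from 48-hour exposures of cells grown in 96-well plates, with endpoints linearly interpolated between the two concentrations bracketing the appropriate inhibition level. TGI denotes the concentration required for complete inhibition of growth.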

Tests used:
Assay in all cases: DTP human tumour cell line panel, 48 h
[1] = test system: MOLT-4 leukemia
[2] = test system: EKVX NSCLC
[3] = test system: OVCAR-3 ovarian
[4] = test system: SW-620 colon
[5] = test system: SR leukemia
[6] = test system: M19-MEL melanoma
[7] = test system: CAKI-1 renal
[8] = test system: LOX IMVI melanoma
[9] = test system: NCI-H460 lung
[10] = test system: CCRF-CEM leukemia
[11] = test system: DMS 114 small cell lung
[12] = test system: SK-MEL-5 melanoma
[13] = test system: UACC-62 melanoma
[14] = test system: SF-295 CNS
[15] = test system: OVCAR-4 ovarian
[16] = test system: HOP-62 NSCLC
[17] = test system: HCT-15 colon
[18] = test system: SK-OV-3 ovarian
[19] = test system: IGROV1 ovarian
[20] = test system: OVCAR-8 ovarian
[21] = test system: 786-0 renal
[22] = test system: RXF 393 renal
[23] = test system: HL-60(TB) leukemia
[24] = test system: UACC-257 melanoma
[25] = test system: HT29 colon
[26] = test system: HCC-2998 colon
[27] = test system: HOP-92 NSCLC
[28] = test system: SNB-75 CNS
[29] = test system: SF-539 CNS
[30] = test system: ACHN renal
[31] = test system: NCI-H522 lung
[32] = test system: HCT-116 colon
[33] = test system: RPMI-8226 leukemia
[34] = test system: SF-268 CNS
[35] = test system: TK-10 renal
[36] = test system: DMS 273 small cell lung
[37] = test system: M14 melanoma
[38] = test system: SK-MEL-2 melanoma
[39] = test system: A549 NSCLC
[40] = test system: DLD-1 colon
[41] = test system: LXFL 529 NSCLC
[42] = test system: SN12C renal
[43] = test system: XF 498 CNS
[44] = test system: MALME-3M melanoma
[45] = test system: SK-MEL-28 melanoma
[46] = test system: COLO 205 colon
[47] = test system: KM12 colon

Cn1cc(C(=O)c2ccccc2)c2ccccc2c1=O
TGI [1]: > 100 µM
TGI [2]: > 100 µM
TGI [3]: > 100 µM
TGI [4]: > 100 µM
TGI [5]: > 100 µM
TGI [6]: > 100 µM
TGI [7]: > 100 µM
TGI [8]: > 100 µM
TGI [9]: > 100 µM
TGI [10]: > 100 µM
TGI [11]: > 100 µM
TGI [12]: > 100 µM
TGI [13]: > 100 µM
TGI [14]: > 100 µM
TGI [15]: > 100 µM
TGI [16]: 71.8 µM
TGI [17]: > 100 µM
TGI [18]: > 100 µM
TGI [19]: > 100 µM
TGI [20]: > 100 µM
TGI [21]: > 100 µM
TGI [22]: > 100 µM
TGI [23]: > 100 µM
TGI [24]: > 100 µM
TGI [25]: > 100 µM
TGI [26]: > 100 µM
TGI [27]: > 100 µM
TGI [28]: > 100 µM
TGI [29]: > 100 µM
TGI [30]: > 100 µM
TGI [31]: > 100 µM
TGI [32]: > 100 µM
TGI [33]: > 100 µM
TGI [34]: > 100 µM
TGI [35]: > 100 µM
TGI [36]: > 100 µM
TGI [37]: > 100 µM
TGI [38]: > 100 µM
TGI [39]: > 100 µM
TGI [40]: > 100 µM
TGI [41]: > 100 µM
TGI [42]: > 100 µM
TGI [43]: > 100 µM
TGI [44]: > 100 µM
TGI [45]: > 100 µM
TGI [46]: > 100 µM
TGI [47]: > 100 µM
